Patent US8124657B2, “Metallofullerols and their applications for preparation of medicine for inhibition of tumor growth” (Institute of High Energy Physics Chinese Academy of Sciences, priority 2005, dated 2012)
Marks after values point to notes of the source that are not given here.

Experiments:
[1] = Serum liver and kidney function markers in H22 tumor-bearing mice; format: in vivo
Method: In another aspect, the invention of hydrolated metallofullerene nanoparticles low toxicity in vivo. Liver function was evaluated with serum levels of total bilirubin levels (TBIL), alanine aminotransferase (ALT) and aspartate aminotransferase (AST). Nephrotoxicity was determined by blood urea nitrogen (BUN) and creatinine (Cr). For instance, the ALT levels of saline-treated groups are almost 4 times of the normal mean value. These indicate that implantation of H22 hepatoma itself in mice has harmed the functions of liver and kidney before treatments. […] After nanoparticle-treatment, the activities of ALT and AST (P<0.01) are reduced by 40% compared with saline control.
Table 2 is the serum TBIL, ALT, AST, and creatinine levels in tumor-bearing mice associated with metallofullerol treatment.

[2] = system: MCF-7 human breast carcinoma
Method: Athymic BALB/c nu/nu female mice (weighing 16.0±1.0 g) were acclimated in the controlled environment (22±1° C. in temperature, 60±10% in humidity and a 12 h light/dark cycle) with free access to sterile distilled water and commercial laboratory complete food containing no pathogens. All animal experiments were performed in compliance with local ethics committee. The human beast cancer MCF-7 cell line was provided by the Cancer Institute and Cancer Hospital, Chinese Academy of Medical Sciences. The tumor bearing nude mice (female) were randomly divided into three groups, twelve in each group. […] A currently used clinical antitumor agent, Paclitaxel, was used as the positive control. Paclitaxel was given 4 times at intervals of 3 days at the dose of 10 mg/kg; when it was not injected, saline solution was injected instead of it. 0.9% saline solution was used as a negative control in the antitumor experiment. The whole administration process lasted 14 days after the starting point. The body weight and tumor size were used as two basic parameters in the experiments, and tumor growth and body weight curve were prepared as a function of time. Tumor weight was calculated according to the formula: Tumor weight (mg)=length (mm)×(width (mm))^2/2.

H22 hepatoma = assay: Antitumor activity on murine H22 hepatoma implanted subcutaneously in Kunming mice; format: in vivo; conditions: for Tumor Weight: mean±SEM
Method: Antitumor studies of hydroxylated metallofullerene nanoparticles were performed on Kunming mice (female, adult, 4 weeks at the start of the experiment, body weight ranging from 20 to 22 g). The mice were subcutaneously implanted with 1×10^6 cells of H22 hepatoma (in 100 μl of saline) in each mouse at the right hind leg. Primary tumors (before administration of antitumor agents) were measured with calipers. The end point of the experiment was determined by the diameter of their leg loaded with tumor up to 2 or 2.2 centimeters. The size of tumor was monitored by daily measurement. Tumor growth curve was obtained by the diameter of the tumor as a function of the time.
The 40 mice of weight ranging from 20 to 22 g were randomly divided into 6 groups. The tumor-bearing mice were then systemically treated with hydroxylated metallofullerene nanoparticles saline solution by intraperitoneal injections once a day. Two doses of hydroxylated metallofullerene nanoparticles, 114 and 228 μg/kg corresponding to 1×10^−7 and 2×10^−7 mol/kg, respectively, were used in the experiment. The currently clinic antineoplastic agent CTX was used for the positive control, with a dose 30 mg/kg (1×10^−4 mol/kg, MW 279.1) of the currently clinic use for cancer therapy. Because of its side effects, treatments by 1×10^−4 and 5×10^−[…] of CTX continued for the first 7 days. Each mouse was administrated intraperitoneally (i.p.) a single dose of 0.2 ml per day from the second day of inoculation and continued to the day before sacrifice. The change of the tumor size was precisely measured every 24 hours.
Table 1 is the tumor weights (mean±SEM, Table 1) from 5-7 mice in each group. FIG. 1 is the Inhibition curve of hepatoma growth in mice by treatment with metallofullerol nanoparticles in two independent experiments. The growth of tumor size was monitored through measuring the diameter of the tumor every 24 hours. Tumor volumes were then calculated according to the formula: V=4πr^3/3. Tumor growth curve was obtained by the diameter of the tumor.

[3] = system: H22 hepatoma tumor tissues; assay: HE staining of tumor tissues of H22 tumor-bearing mice; format: in vivo
Source text: The tumor morphology of HE staining of paraffin-embedded sections of tumor tissues in nanoparticle-treated, CTX-treated and the control groups, are shown in FIG. 9. In the saline control group, tumor cells heavily proliferated, arrayed regularly, and grievously invaded surrounding musculature (FIGS. 9A and B). […] When […] H22 liver tumors developed subcutaneously in mice, the envelope surrounding the neoplastic tissues, mainly composed of capillary vessels, fibrosis and lymphadenoid tissues were formed (FIG. 9C). […] In the [Gd@C82(OH)22]n-treated groups, lymphocyte hyperplasia (lymphopoiesis) and aggregated follicles around the transplanted tumor tissues were clearly seen (FIG. 9C). But in the CTX-treated mice, this envelope of fibroblasts associated with sporadic neutrophil cells was small so that it could not completely enclose the entire tumor tissues. Unlike in groups of the nanoparticle-treatment, the tumor invasion into surrounding normal muscle cells still existed in the CTX-treatment groups; although necrosis of tumor tissue was observed (FIGS. 9E and F).

[4] = Dosage I (Low): CTX 5 × 10^−5 mol/kg/day i.p., n = 6
[5] = Dosage II (High): CTX 1 × 10^−4 mol/kg/day i.p., n = 11

SMILES | Change of serum ALT versus saline ([1]; CTX-treated) | Serum ALT ([1]; high dose group) | Serum AST ([1]; high dose group) | Serum Creatinine ([1]; high dose group) | Serum TBIL ([1]; high dose group) | Change of serum concentrations of TBIL, BUN and Cr ([1]; i.p. injections) | Inhibition Efficiency ([2]; CTX 71.6 μmol/kg/day, N = 10, nude mice) | Inhibition Efficiency (H22 hepatoma; [4]) | Tumor Weight (H22 hepatoma; [4]) | Inhibition Efficiency (H22 hepatoma; [5]) | Tumor Weight (H22 hepatoma; [5]) | Immune responses in tumor tissues (HE staining) [3] | Tumor necrosis in HE-stained tumor sections [3] | Mortality of mice ([2]; MCF-7 tumor-bearing nude mice under treatment)
O=P1(N(CCCl)CCCl)NCCCO1 (centres unmarked) [CTX] | not reduced, but even slightly increased | 152.2 ± 71.5 IU/L | 337 ± 53.7 ^a IU/L | 51.0 ± 3.3 µmol/L | 1.66 ± 0.59 µmol/L | do not significantly changed | 47.0% | 52.0% | 1.80 ± 0.41 g | 67.5% | 1.22 ± 0.86 g | not observed | evidently induced tumor necrosis | –
CC(=O)O[C@H]1C(=O)[C@@]2(C)[C@H]([C@H](OC(=O)c3ccccc3)[C@]3(O)C[C@H](OC(=O)[C@H](O)[C@@H](NC(=O)c4ccccc4)c4ccccc4)C(C)=C1C3(C)C)[C@]1(OC(C)=O)CO[C@@H]1C[C@@H]2O [Paclitaxel] | – | – | – | – | – | – | – | – | – | – | – | – | – | 16.7%
